We go through twelve compounds from ChEMBL document CHEMBL1201862, “PubChem BioAssay data set” (2004).

The structures appear in SMILES notation.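 Step 1: Grow cells in 96-well plates. Step 2: Expose to compound for 48 hours at 5 concentrations. Step 3: Interpolate endpoints linearly; if unreached, use highest concentration. Here, GI50 denotes the concentration required for 50% inhibition of growth.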 Calls of active or inactive are those of the source. Cut-off read from the data, not from the text of the source: active = GI50 up to about 1.1 µM and inactive = higher.

What all share (experiment): DTP human tumour cell line panel, 48 h
Assay [1] relates to HOP-62.
The test system of assay [2] is HOP-92.
In assay [3] the test system is NCI-H226.
For assay [4], the system named is UACC-62.
The test system of assay [5] is IGROV-1.
For assay [6], the system named is SN12C.
The subject of assay [7] is HCC 2998.
The subject of assay [8] is M14.
In assay [9] the test system is SK-OV-3.
In assay [10] the test system is NCI-H460.
The test system of assay [11] is SF-268.
Assay [12] relates to RXF 393.
For assay [13], the system named is SW-620.
The subject of assay [14] is EKVX.
Assay [15] concerns CAKI-1.
Assay [16] concerns OVCAR-4.
Assay [17] deals with T47D.
The test system of assay [18] is SK-MEL-2.
Assay [19] concerns HL-60.

Regarding `OCCSCc1cc(Cl)cc(Cl)c1O`, the GI50 in assay [1] is > 100 µM (inactive); in assay [2], 57.9 µM (inactive); in [3], 61.7 µM (inactive); in [4], > 100 µM (inactive); in assay [5], > 100 µM (inactive); in [6], > 100 µM (inactive). In addition, the GI50 in assay [7], in [8], in assay [9], in assay [10], in [11] and in [12] was > 100 µM (inactive) in each case. Further, the GI50 in [13], in [14], in [15], in assay [16] and in assay [17] was > 100 µM (inactive) in each case.

On to `Oc1cccnc1CN1CCCCC1`, for which the GI50 in [18], in assay [1], in [2], in assay [3], in assay [4] and in [5] was > 100 µM (inactive) throughout. Also, the GI50 in [6], in assay [7], in assay [8], in assay [9], in [10] and in [11] was > 100 µM (inactive) each time. The GI50 in assay [12], in [13], in assay [14], in assay [15], in assay [16] and in assay [17] was > 100 µM (inactive) each time.

As to `O=[N+]([O-])c1ccc(C[S+]([O-])Cc2ccccc2)cc1` (centres undefined), the GI50 in [18], in assay [1], in [2], in assay [3], in assay [4] and in assay [5] was > 100 µM (inactive) throughout. Moreover, the GI50 in assay [6], in assay [8], in assay [9], in assay [10], in assay [11] and in [12] was > 100 µM (inactive) in each case. Also, the GI50 in assay [19], in assay [13], in assay [14], in assay [15], in [16] and in assay [17] was > 100 µM (inactive) throughout.

Consider `CCC(c1ccc2cc(O)ccc2c1)C(C)(C)C(=O)O` (centres undefined), for which the GI50 in [18], in [1], in assay [2], in [3], in [4] and in assay [5] was > 100 µM (inactive) in each case. Also, the GI50 in assay [6], in assay [7], in assay [8], in assay [9], in assay [10] and in assay [11] was > 100 µM (inactive) throughout. Moreover, the GI50 in assay [12], in [13], in [14], in assay [15], in [16] and in assay [17] was > 100 µM (inactive) throughout.

Take `O=C1C(Cl)=C(NCCF)C(=O)c2ncccc21`: the GI50 is 1.68 µM (inactive) in assay [18]; 2.04 µM (inactive) in assay [1]; 1.92 µM (inactive) in [3]; 0.977 µM (active) in [4]; 1.95 µM (inactive) in assay [5]; 1.91 µM (inactive) in [6]. For the same compound, the GI50 in assay [7] is 1.36 µM (inactive); in assay [8], 1.61 µM (inactive); in assay [9], 2.29 µM (inactive); in [10], 1.65 µM (inactive); in assay [11], 2.03 µM (inactive); in [12], 1.84 µM (inactive). Further, the GI50 is 5.11 µM (inactive) in [19], 1.36 µM (inactive) in [13], 1.68 µM (inactive) in assay [14] and 2.2 µM (inactive) in [17].

`N/C(CCSCCSCC/C(N)=N\O)=N\O`: the GI50 in [1], in [2], in assay [3], in assay [4], in assay [5] and in [6] was > 100 µM (inactive) throughout. Besides, the GI50 in [7], in [8], in [9], in assay [10], in assay [11] and in assay [12] was > 100 µM (inactive) each time. Also, the GI50 in [19], in assay [13], in assay [14], in assay [15], in assay [16] and in [17] was > 100 µM (inactive) throughout.

On to `CC1(C)CNCC(C)(OCc2ccccc2)C(=O)NC(C)(C)CNCC(C)(OCc2ccccc2)C(=O)N1` (centres undefined), for which the GI50 in assay [18] is > 10 µM (inactive); in assay [1] it was > 10 µM (inactive); in assay [2] it was 0.385 µM (active); in assay [3] it was > 10 µM (inactive); in [4], > 10 µM (inactive); in assay [5], > 10 µM (inactive). Also, the GI50 in assay [6], in [7], in assay [8], in assay [9], in [10] and in assay [11] was > 10 µM (inactive) throughout. Further, the GI50 in [12] was 3.78 µM (inactive); in [13], > 10 µM (inactive); in [14], > 10 µM (inactive); in assay [17], > 10 µM (inactive).

Turning to `O=C1c2ccccc2-c2c1c(-c1ccc(F)cc1)nc1ccc3ccccc3c21`, the GI50 in assay [18], in assay [1], in assay [3], in assay [4], in assay [6] and in assay [7] was > 100 µM (inactive) throughout. Also, the GI50 in [8], in [9], in assay [10], in assay [11], in assay [12] and in [13] was > 100 µM (inactive) in each case. Besides, the GI50 in [14], in assay [15], in [16] and in [17] was > 100 µM (inactive) each time.

For the compound `CC(=N/NC(=S)N(C)C)/C(=N\NC(=S)N(C)C)c1ccccc1`, the GI50 was 1.99 µM (inactive) in [18]; 2.24 µM (inactive) in assay [1]; 1.95 µM (inactive) in assay [2]; 1.71 µM (inactive) in assay [3]; 1.94 µM (inactive) in assay [4]; 1.66 µM (inactive) in [5]. Moreover, the GI50 in [6] was 1.47 µM (inactive); in assay [7], 0.989 µM (active); in assay [8], 1.97 µM (inactive); in [9] it was 1.98 µM (inactive); in [10], 1 µM (active); in assay [11] it was 2.07 µM (inactive). The GI50 in assay [12] was 1.46 µM (inactive); in [13], 1.93 µM (inactive); in assay [14], 1.85 µM (inactive); in [15], 2.53 µM (inactive); in assay [16], 2.02 µM (inactive); in assay [17], 1.65 µM (inactive).

`CCn1c(=O)c2nc(SC)sc2n(-c2ccc(C)cc2)c1=O`: the GI50 was 66.4 µM (inactive) in [18]; > 100 µM (inactive) in [1]; > 100 µM (inactive) in assay [2]; > 100 µM (inactive) in assay [3]; > 100 µM (inactive) in [5]; > 100 µM (inactive) in assay [6]. Further, the GI50 was > 100 µM (inactive) in assay [7]; 6.68 µM (inactive) in assay [8]; > 100 µM (inactive) in assay [9]; > 100 µM (inactive) in assay [10]; > 100 µM (inactive) in assay [11]; > 100 µM (inactive) in assay [12]. For the same compound, the GI50 in assay [19], in [13], in assay [16] and in assay [17] was > 100 µM (inactive) in each case.

For the compound `C[C@@H]1[C@H](C)N1CC(O)Cn1ccnc1[N+](=O)[O-]` (some centres undefined), the GI50 in [18], in assay [1], in [3], in assay [4], in assay [5] and in assay [6] was > 100 µM (inactive) throughout. Further, the GI50 in assay [7], in assay [8], in assay [9], in assay [10], in assay [11] and in assay [12] was > 100 µM (inactive) each time. The GI50 in [19], in [13], in assay [14], in assay [15], in assay [16] and in assay [17] was > 100 µM (inactive) each time.

In the case of `COc1ccc(-c2oc3c(CC(=O)O)cccc3c(=O)c2OC)cc1`, the GI50 in assay [18], in [1], in assay [3], in [4], in [5] and in [6] was > 100 µM (inactive) each time. Further, the GI50 in assay [7], in assay [8], in assay [9], in assay [11], in [12] and in assay [19] was > 100 µM (inactive) each time. Besides, the GI50 in [14] is > 100 µM (inactive); in [15], 21.6 µM (inactive); in assay [17], > 100 µM (inactive).
